Measurements as given in patent US20150118215A1, “Methods of Inhibiting Cell Proliferation” (The General Hospital Corporation, priority 2012, published 2015).
“Also recorded” adds a separate entry of the source. Values belong to the molecule of their own block, whether it stands above or below them.

Columns and labels:
Human NSCLC A549 cells = experiment: Cell proliferation assays (MTT, direct cell counting); type: cell-based; settings: A549, wild-type EGFR, KRas-G12S; three days treatment
Description: Cell Proliferation Assays—
First, MTT proliferation assay was carried out using cell growth determination kit according to manufacturer instructions (Sigma). Human NSCLC A549 cells which are expressing wild-type EGFR with KRas-G12S activation mutation were studied in these experiments. […] Medium was changed daily for three days, and cells were stained with MTT and DAPI when indicated.
Second, direct cells counting assays were also performed as follows. Microscopic images of 0.317 mm^2 area each well were acquired for MTT stained cells and cells were counted using ImageJ (NIH). […] Alternatively, the cells were stained with DAPI and microscopic images of whole wells were acquired using DeltaVision system (Applied Precision). Cells were counted using Particle Tracker PlugIn for ImageJ as above (FIG. 13).

MTC cells [1] = experiment: Pulse-chase live time-lapse confocal imaging and tracking of endocytic vesicles; type: cell-based
Description: Pulse-Chase Experiments and Live Time-Lapse Confocal Fluorescence Imaging—
Live cell imaging of MTC cells was performed using time-lapse confocal fluorescent imaging as previously described (Hurtado-Lorenzo et al. (Nat Cell Biol 8, 124-136, 2006)). MTC cells were seeded on FluoroDish (World Precision Instruments, Inc) (25,000-100,000 cells/dish) and grown to about 50% confluency. To label the organelles of the endocytic pathway in vivo, MTC cells were transfected using lipofectamine 2000 (Invitrogen) with 5 μg of the plasmids: i) EEA1-GFP or Rab5-EGFP (early endosomal markers); ii) Rab7-EGFP (late endosomal marker), and iii) LAMP1-mGFP (lysosomal marker). After two days, the cells were washed for three times with Ringer's buffer (pH 6.0) followed by one wash with Ringer's buffer (pH 7.4) at 37° C., and i) pulsed for 15 min with 5 μM FITC-TAT and 100 μg/ml albumin-Alexa594: ii) pulsed for 15 min with 5 μM FITC-a2N1-17-TAT and 100 μg/ml albumin-Alexa594; or iii) pre-incubated in the presence or absence of 1 μM bafilomycin A1 and pulsed with 100 μg/ml albumin-Alexa594. The MTC cells transfected with EEA1-GFP, Rab5-EGFP, Rab7-EGFP and LAMP1-GFP plasmids were pulsed for 6-15 min with 5 μM of CTMR-a2N1-17-TAT peptide. After the pulse, cells were washed either by perfusion or rinsing with Ringer's buffer (pH 7.4) and incubated in an environmental chamber (37° C., 5% CO2) coupled to a Nikon inverted microscope. Videos were acquired with a spinning-disc confocal imaging system Ultra View RS (Perkin Elmer). FIGS. 9 and 10 show frames from these movies.
Image Analysis and Tracking of Endocytic Vesicles—
Dynamics of the movement of early endosomes, late endosomes and lysosomes labeled with either: i) albumin-Alexa594; ii) FITC-a2N1-17-TAT and albumin-Alexa594; or iii) CTMR-a2N1-17-TAT and transfected EEA1-GFP markers were tracked with Particle Tracker PlugIn (Merkulova et al. (Biochim BiophysActa 1797, 1398-1409, 2010)) for ImageJ (NIH). The trajectories that appeared for over 30 frames were further analyzed. The two-dimensional displacement between consecutive frames was calculated from changes in X and Y position coordinates and speed was calculated by dividing the displacement by time. The two-dimensional displacements between all possible combinations of frames were also calculated and the longest distance was defined as “maximum distance” of the trajectory. The speeds were averaged for 11 consecutive frames and the fastest speed was defined as “maximum speed” of the trajectory.

[2] = molecular target: T1, Sec7-domain of cytohesin-2 (Homo sapiens, UniProt Q99418); settings: Biacore; a2N(1-17) peptide and Sec7-domain; read-out: dissociation constant KD; cited from earlier work
T1 sequence (Q99418 72-201 limits assumed): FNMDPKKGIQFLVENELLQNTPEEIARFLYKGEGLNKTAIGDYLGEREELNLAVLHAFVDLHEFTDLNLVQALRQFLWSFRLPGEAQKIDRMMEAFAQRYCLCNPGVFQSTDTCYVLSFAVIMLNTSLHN

MTC cells [3] = experiment: Cell population albumin degradation assay (DQ-Red BSA); type: cell-based; settings: 5 μM peptides, 1 μM bafilomycin A1, 20 mM NH4Cl, 1 mM amiloride, 100 μM DMA
Description: Cell Population Albumin Degradation Assay—
Quantitative protein degradation assay was performed using DQ-Red BSA. MTC cells were seeded on 48-well plate (5,000 cells/well) and grown for 7 days until being polarized, followed by starvation for two days in serum-free DMEM medium. Cells were washed with Ringer buffer (pH 6.0) for three times and with Ringer buffer (pH 7.4) once. Cells were then incubated in 200 μl of Ringer buffer (pH 7.4) containing as indicated: 5 μM FITC-TAT, 5 μM FITC-a2N1-17-TAT peptide, 1 μM baflomycin A1, 20 mM NH4Cl, 1 mM amiloride or 100 μM DMA. DQ-Red BSA was added to a final concentration of 10 μg/ml. The fluorescence was estimated using a DTX 880 Microplate Reader (Beckman) with 590-nm excitation and 625-nm emission filters every 3 minutes. The 48-well plate was kept at 37° C. in the microplate reader (FIG. 11).

MTC cells [4] = experiment: Cell population endocytic uptake assay (albumin-Alexa555, RITC-dextran) in MTC cells; type: cell-based; settings: for effect on endocytic uptake of fluid phase marker RITC-dextran: control and peptide-stimulated conditions, inhibitors; for effect on uptake of albumin-Alexa555 via receptor-mediated (CDE) pathway: control non-stimulated conditions; for effect on uptake of albumin-Alexa555 via receptor-mediated (CDE) pathway / effect on uptake of albumin-Alexa555 via FITC-a2N1-17-TAT peptide-induced macropinocytosis (CIE) pathway: 1 μM bafilomycin A1, 100 μM DMA or 100 μM EIPA; for effect on uptake of albumin-Alexa555 via FITC-a2N1-17-TAT peptide-induced macropinocytosis (CIE) pathway: peptide-stimulated
Description: (§1) Cell Population Albumin Endocytic Uptake Assay—
(§2) Quantitative endocytic uptake of albumin-Alexa555 and RITC-dextran was performed using a cell population assay as previously described (Hurtado-Lorenzo et al. (Nat Cell Biol 8, 124-136, 2006)). HeLa cells were seeded on 48-well plates (5,000 cells/well) and grown for 5 days. MTC cells were seeded on 48-well plates (5,000 cells/well) and grown for 7 days until polarized, followed by starvation for 2 days in serum-free DMEM medium. Cells were incubated in 200 μl of Ringer buffer (pH 7.4) containing either 200 μg/ml albumin-Alexa555 or 500 μg/ml RITC-dextran in the presence of 5 μM FITC-TAT or 5 μM FITC-a2N1-17-TAT peptides. As indicated, cells were also treated with 1 μM bafilomycin A1, 1 mM amiloride, 100 μM DMA or 100 μM EIPA. At the indicated times, cells were washed with Ringer's buffer (pH 6.0) for three times and were permeabilized in 20 mM MOPS (pH 7.0), 0.1% Triton X-100. The fluorescence was measured using a DTX 880 Microplate Reader (Beckman) with 535-nm excitation and 595-nm emission filters (FIGS. 7, 8, and 12).

HeLa cells = experiment: Cell population endocytic uptake assay (albumin-Alexa555, RITC-dextran) in HeLa cells; type: cell-based; settings: 5 μM peptide
Description: as §1, §2

cytohesin-2 = molecular target: T2, cytohesin-2 (Homo sapiens, UniProt Q99418); experiment: Radiolabel-based GEF-activity assay ([35S]-GTPγS binding) of full-length cytohesin-2 with myr-Arf1 or myr-Arf6; type: biochemical
T2 construct: steady-state enzymatic GEF-activity analysis of full-length cytohesin-2 or Sec7 domain with Arf1 and Arf6; made in house; host or cells: E. coli BL21DE3
T2 sequence (Q99418 1-400): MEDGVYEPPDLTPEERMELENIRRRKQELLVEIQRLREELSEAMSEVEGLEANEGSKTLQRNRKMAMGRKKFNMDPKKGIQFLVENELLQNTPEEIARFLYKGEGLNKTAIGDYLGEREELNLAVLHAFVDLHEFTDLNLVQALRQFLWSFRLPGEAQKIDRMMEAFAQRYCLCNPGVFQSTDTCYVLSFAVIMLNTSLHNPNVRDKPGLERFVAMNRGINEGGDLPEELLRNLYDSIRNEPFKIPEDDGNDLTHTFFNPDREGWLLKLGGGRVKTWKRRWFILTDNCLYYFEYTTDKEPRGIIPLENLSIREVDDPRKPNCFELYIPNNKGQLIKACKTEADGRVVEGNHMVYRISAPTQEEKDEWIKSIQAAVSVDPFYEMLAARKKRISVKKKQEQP
Description: Two assays were used to determine the GDP/GTP-exchange activity of both full-length cytohesin-2 and Sec7 domain.
a) Radiolabel-Based Assay.
The lipids were dissolved in chloroform. […] Proteins were trapped on nitrocellulose filters.
To test the potential signaling between V-ATPase and cytohesin-2/Arf GTP-binding proteins, a GEF-activity assay was established for cytohesin-2 (wt) and myristoylated myr-Arf6 (wt) and myr-Arf1 (wt) GTP-binding proteins (FIG. 2A). Human Arf1 was co-expressed with yeast N-myristoyltransferase in E. coli BL21/DE3 strain. Recombinant myr-Arf1 was purified from the E. coli lysate (A1) using an AKTApurifier equipped with HiTrapQ, Superdex200 columns (A2), and Phenyl Sepharose HP column (A3). Human Arf6 was also co-expressed with yeast N-myristoyltransferase in E. coli BL21/DE3 strain. Recombinant myr-Arf6 was extracted from insoluble fraction using Triton X-100 (B1). The extract was precipitated by 35% ammonium sulfate and myr-Arf6 purified with HiTrapQ column (B2). […] Several soluble, cell permeable and fluorescently labeled a2N1-17 derived peptides were synthesized, which were used in the current GEF-activity and structural studies in vitro.

[5] = EEA1-EGFP positive early endosomes, peptide in cytosol of MTC cells, 5 μM

Molecule: MGELFRSEEMTLAQLFL [a1N1-17]
- inhibition of proliferation of human lung cancer A549 cells (Human NSCLC A549 cells): very potent inhibitors

Molecule: MASVFRSEEMCLSQVFL [a4N1-17]
- inhibition of proliferation of human lung cancer A549 cells (Human NSCLC A549 cells): very potent inhibitors

Molecule: CTMR- MGSLFRSESMCLAQLFL - YGRKKRRQRRR [CTMR-a2N1-17-TAT]
- moving distance of early endosomes (MTC cells [1]; [5]): significant increase
- moving speed of early endosomes (MTC cells [1]; [5]): significant increase

Molecule: MGSLFRSETMCLAQLFL [a2N(1-17)]
- Kd [2]: 344 nM

Molecule: MGSMFRSEEVALVQLLL [a3N1-17]
- inhibition of proliferation of human lung cancer A549 cells (Human NSCLC A549 cells): very potent inhibitors

Molecule: N=C(N)NC(=O)c1nc(Cl)c(N)nc1N [amiloride]
- effect on degradation of DQ-Red-BSA in endosomal/lysosomal compartments (MTC cells [3]): significantly stimulated

Molecule: CO/C1=C\C(C)=C\[C@@H](C)[C@@H](O)[C@@H](C)C/C(C)=C/C=C/[C@H](OC)[C@@H]([C@@H](C)[C@@H](O)[C@H](C)[C@@]2(O)C[C@@H](O)[C@H](C)[C@@H](C(C)C)O2)OC1=O [bafilomycin A1]
- effect on moving distance of albumin-Alexa594 positive vesicles (MTC cells [1]; MTC cells, 1 μM bafilomycin A1): time-dependent inhibitory effect
- inhibitory effect on speed of albumin-Alexa594 positive vesicles (MTC cells [1]; MTC cells, late stages of trafficking, 1 μM bafilomycin A1): 20%
- effect on degradation of DQ-Red-BSA in endosomal/lysosomal compartments (MTC cells [3]): strongly inhibited
- effect on endocytic uptake of fluid phase marker RITC-dextran (MTC cells [4]): not modulated
- effect on uptake of albumin-Alexa555 via receptor-mediated (CDE) pathway (MTC cells [4]): inhibitory action; also recorded: inhibits
- effect on uptake of albumin-Alexa555 via FITC-a2N1-17-TAT peptide-induced macropinocytosis (CIE) pathway (MTC cells [4]): no effect; also recorded: does not modulate

Molecule: FITC-TAT: biologically inactive control peptide, FITC-labelled TAT sequence (YGRKKRRQRRR; SEQ ID NO:33); also purchased from Anaspec
- effect on degradation of DQ-Red-BSA in endosomal/lysosomal compartments (MTC cells [3]): did not have any effect; also recorded: do not affect
- effect on uptake of RITC-dextran (HeLa cells): not
- effect on uptake of albumin-Alexa555 (HeLa cells): not
- potently inhibits the enzymatic activity of cytohesin-2 (in words) (cytohesin-2; with both myr-Arf6 and myr-Arf1 as substrate): not
- effect on endocytic uptake of albumin-Alexa555 (in words) (MTC cells [4]; 5 μM peptide): no effect and not
- effect on uptake of fluid-phase marker RITC-dextran (MTC cells [4]; 5 μM peptide): not

Molecule: Cl.N [NH4Cl]
- effect on degradation of DQ-Red-BSA in endosomal/lysosomal compartments (MTC cells [3]): strongly inhibited

Molecule: CCN(c1nc(N)c(C(=O)N=C(N)N)nc1Cl)C(C)C [EIPA, 5-(N-ethyl-N-isopropyl)amiloride]
- effect on uptake of albumin-Alexa555 via receptor-mediated (CDE) pathway (MTC cells [4]): does not affect
- effect on uptake of albumin-Alexa555 via FITC-a2N1-17-TAT peptide-induced macropinocytosis (CIE) pathway (MTC cells [4]): could inhibit

- more potent inhibitor of cytohesin-2 than SecinH3 (cytohesin-2; relative to SecinH3): up to 150 times
Molecule: MGSLFRSESMCLAQLFL [a2N1-17]
- inhibition of proliferation of human lung cancer A549 cells (Human NSCLC A549 cells): very potent inhibitors

Molecule: CN(C)c1nc(N)c(C(=O)N=C(N)N)nc1Cl.Cl [DMA, 5-N,N-dimethylamiloride hydrochloride]
- effect on degradation of DQ-Red-BSA in endosomal/lysosomal compartments (MTC cells [3]; hydrochloride): significantly stimulated; also recorded: increased
- effect on endocytic uptake of fluid phase marker RITC-dextran (MTC cells [4]): not modulated
- effect on uptake of albumin-Alexa555 via receptor-mediated (CDE) pathway (MTC cells [4]; hydrochloride): does not affect; also recorded: does not modulate
- effect on uptake of albumin-Alexa555 via FITC-a2N1-17-TAT peptide-induced macropinocytosis (CIE) pathway (MTC cells [4]; hydrochloride): could inhibit; also recorded: strongly inhibits
